Earlier results in patent US20130281457A1, “PHARMACEUTICAL COMPOSITIONS COMPRISING 5-CHLORO-N-(-METHYL)-2-THIOPHENCARBOXAMID” (Ratiopharm GmbH, priority 2008, published 2013).

solubility in water: only limited solubility in water
SMILES: O=C(NC[C@H]1CN(c2ccc(N3CCOCC3=O)cc2)C(=O)O1)c1ccc(Cl)s1 [Compound I, 5-Chloro-N-({(5S)-2-oxo-3-[4-(3-oxo-4-morpholinyl)-phenyl]-1,3-oxazolidin-5-yl}-methyl)-2-thiophencarboxamid]
